# Laboratory results taken from patent US20260284018A1, “DUAL INHIBITORS OF DYRK1A AND 5-HT2 FOR TREATING A BRAIN DISORDER” (THE REGENTS OF THE UNIVERSITY OF CALIFORNIA, priority 2023, published 2026).
# Legend:
# C57BL/6J mice [1] = experiment: Head-twitch response; assay type: in vivo; conditions: for head-twitch response: intraperitoneal, up to 30 mg/kg
# Experimental: (§1) Animals. Female C57BL/6J mice used in the head twitch response and locomotion assays, and Sprague Dawley dams used to generate embryonic cultures were obtained from Jackson Laboratory (Sacramento, CA). Mice were housed in a temperature- and humidity-controlled room maintained on a 12 h light/dark cycle in groups of four to five (same sex). Animals weighed between 17 and 30 g at the time of the experiments. All experimental procedures involving rodents were approved by the UC Davis Institutional Animal Care and Use Committee (IACUC) and adhered to principles described in the National Institutes of Health Guide for the Care and Use of Laboratory Animals. The University of California, Davis is accredited by the Association for Assessment and Accreditation of Laboratory Animal Care International (AAALAC).
# (§2) Head-Twitch Response and Locomotion. Mice (9-10 weeks old) were injected intraperitoneally with compounds dissolved in 10% Kolliphor® EL (Sigma) and 10% DMSO in 0.9% saline (injection volume 5 mL/kg) or vehicle, placed in an empty cage, and filmed for 10 min. Locomotion was quantified using ANYmaze Video Tracking System, version 7.07 (Stoelting Co.). After 10 min, mice were then injected with 5-MeO-DMT dissolved in 0.9% saline (10 mg/kg, injection volume 5 mL/kg) or vehicle and filmed for 20 min. Cages were cleaned with 70% ethanol between experiments. […] The last 20 min of each video were scored by one trained observer blinded to the treatment conditions.
# DYRK1A = molecular target: T1, DYRK1A (Homo sapiens, UniProt Q13627); experiment: DYRK1A inhibition (ADP-Glo assay); assay type: biochemical; conditions: FIG. 3
# T1 construct: purchased Promega
# Experimental: DYRK1A inhibition. IC50s for all compounds at DYRK1A were determined using an ADP-Glo™ assay kit (Promega) and DYRK1A enzyme system (Promega) following the manufacturer's protocol. In brief, 10 μL of DYRKtide substrate (1 mg/mL) and ATP (50 μM) in kinase reaction buffer (40 mM Tris HCl, 20 mM MgCl2, 0.1 mg/mL BSA, 50 μM DTT in DI water) was added to a solid white 96-well plate. Next, 5 μL of 5× compound solutions in kinase reaction buffer (5% DMSO) or 5% DMSO in kinase reaction buffer was added. Then 10 μL DYRK1A in kinase reaction buffer (2 ng/μL) was added and the plate was incubated at room temperature for 60 min before adding 25 μL ADP-Glo™ reagent. The plate was incubated for 40 min at room temperature. Subsequently, 50 μL of Kinase Detection Reagent was added, the plate was gently shaken for 1 min. and incubated away from light for 30-40 min. Finally, luminescence was measured using a BioTek Synergy HTX multi-mode reader (integration time=1 s). All data was normalized such that the luminescence produced by the lowest concentration treatment of each compound was set to 100% DYRK1A activity.
# C57BL/6J mice [2] = experiment: Locomotion in open field chamber; assay type: in vivo; conditions: doses up to 30 mg/kg
# Experimental: as §1
# as §2, with “Co.).” for “Co.). After 10 min, mice were then injected with 5-MeO-DMT dissolved in 0.9% saline (10 mg/kg, injection volume 5 mL/kg) or vehicle and filmed for 20 min. Cages were cleaned with 70% ethanol between experiments.”
# [3] = molecular target: T2, human recombinant 5-HT2AR (Homo sapiens, UniProt P28223); experiment: IPOne HTRF assay, 5-HT2AR; assay type: cell-based; conditions: for antagonist activity at 5-HT2A, IP-One: antagonist mode
# T2 construct: host or cells: CHO-K1
# Experimental: IPOne Assays. The 5-HT2AR and 5-HT2CR IPOne HTRF assays were performed at Epics Therapeutics S.A. (Belgium, FAST-0505I) using conventional methods. Briefly, CHO-K1 cells expressing human recombinant 5-HT2AR or 5-HT2CR grown to mid-log phase in culture media without antibiotics were detached with PBS-EDTA, centrifuged, and resuspended in medium without antibiotics buffer. Then, 20,000 cells were distributed in a 96-well plate and incubated overnight at 37° C. with 5% CO2. For agonist testing, the medium was removed and 20 μL of assay buffer plus 20 μL of test compound or reference agonist (α-Me-5-HT) was added to each well. The plate was incubated for 60 min at 37° C. with 5% CO2. For antagonist testing, the medium was removed and 20 μL of assay buffer plus 20 μL of test compound or reference antagonist (ketanserin) was added to each well. The plate was incubated for 60 min at 37° C. with 5% CO2. After addition of the lysis buffer containing IP1-d2 and anti-IP1 cryptate detection reagents, plates were incubated for 1 h at room temperature and fluorescence ratios were measured according to the manufacturer's specifications using the HTRF kit.
# 97 kinases = experiment: KINOMEscan scanEDGE, whole panel; assay type: binding; conditions: 10 μM
# Experimental: Compounds were screened at 10 μM using the DiscoverX KinomeSCAN™ assay. Results are reported as the % activity relative to the vehicle (i.e., DMSO) control, where lower values indicate higher affinity (see Table 1 for full scan data). The activity of HTW_A_8 fumarate at PIK3CG was minimal (33%) and barely met the threshold for inclusion. […] Data for harmine were obtained from a previous report.
# Kinome Scan. Compound HTW_A_8 fumarate was screened against 97 kinases at a single concentration of 10 μM at Eurofins DiscoverX using their KINOMEscan™ scanEDGE assay. The results are reported as the % activity relative to DMSO control, where lower values indicate higher affinity. See Table 1 for the full kinome profile.
# PCTK1 = molecular target: T3, PCTK1 (Homo sapiens, UniProt Q00536); conditions: 10 μM; cited from earlier work
# T3 construct: purchased Eurofins DiscoverX (KINOMEscan scanEDGE service)
# IGF1R = molecular target: T4, IGF1R (Homo sapiens, UniProt P08069); conditions: 10 μM; cited from earlier work
# T4 construct: purchased Eurofins DiscoverX
# MAP3K4 = molecular target: T5, MAP3K4 (Homo sapiens, UniProt Q9Y6R4); conditions: 10 μM; cited from earlier work
# T5 construct: purchased Eurofins DiscoverX (KINOMEscan scanEDGE service)
# AXL = molecular target: T6, AXL (Homo sapiens, UniProt P30530); conditions: 10 μM; cited from earlier work
# T6 construct: purchased Eurofins DiscoverX
# AURKB = molecular target: T7, AURKB (Homo sapiens, UniProt Q96GD4); conditions: 10 μM; cited from earlier work
# T7 construct: purchased Eurofins DiscoverX
# FAK = molecular target: T8, FAK (Homo sapiens, UniProt Q05397); conditions: 10 μM; cited from earlier work
# T8 construct: purchased Eurofins DiscoverX
# PLK4 = molecular target: T9, PLK4 (Homo sapiens, UniProt O00444); conditions: 10 μM; cited from earlier work
# T9 construct: purchased Eurofins DiscoverX KINOMEscan scanEDGE
# [4] = molecular target: T10, TYK2(JH1domain-catalytic) (Homo sapiens, UniProt P29597); conditions: 10 μM; cited from earlier work
# T10 construct: TYK2(JH1domain-catalytic); purchased Eurofins DiscoverX KINOMEscan scanEDGE
# MEK2 = molecular target: T11, MEK2 (Homo sapiens, UniProt P36507); conditions: 10 μM; cited from earlier work
# T11 construct: purchased Eurofins DiscoverX (KINOMEscan scanEDGE service)
# TIE2 = molecular target: T12, TIE2 (Homo sapiens, UniProt Q02763); conditions: 10 μM; cited from earlier work
# T12 construct: purchased Eurofins DiscoverX KINOMEscan scanEDGE
# T12 sequence (Q02763 23-1124): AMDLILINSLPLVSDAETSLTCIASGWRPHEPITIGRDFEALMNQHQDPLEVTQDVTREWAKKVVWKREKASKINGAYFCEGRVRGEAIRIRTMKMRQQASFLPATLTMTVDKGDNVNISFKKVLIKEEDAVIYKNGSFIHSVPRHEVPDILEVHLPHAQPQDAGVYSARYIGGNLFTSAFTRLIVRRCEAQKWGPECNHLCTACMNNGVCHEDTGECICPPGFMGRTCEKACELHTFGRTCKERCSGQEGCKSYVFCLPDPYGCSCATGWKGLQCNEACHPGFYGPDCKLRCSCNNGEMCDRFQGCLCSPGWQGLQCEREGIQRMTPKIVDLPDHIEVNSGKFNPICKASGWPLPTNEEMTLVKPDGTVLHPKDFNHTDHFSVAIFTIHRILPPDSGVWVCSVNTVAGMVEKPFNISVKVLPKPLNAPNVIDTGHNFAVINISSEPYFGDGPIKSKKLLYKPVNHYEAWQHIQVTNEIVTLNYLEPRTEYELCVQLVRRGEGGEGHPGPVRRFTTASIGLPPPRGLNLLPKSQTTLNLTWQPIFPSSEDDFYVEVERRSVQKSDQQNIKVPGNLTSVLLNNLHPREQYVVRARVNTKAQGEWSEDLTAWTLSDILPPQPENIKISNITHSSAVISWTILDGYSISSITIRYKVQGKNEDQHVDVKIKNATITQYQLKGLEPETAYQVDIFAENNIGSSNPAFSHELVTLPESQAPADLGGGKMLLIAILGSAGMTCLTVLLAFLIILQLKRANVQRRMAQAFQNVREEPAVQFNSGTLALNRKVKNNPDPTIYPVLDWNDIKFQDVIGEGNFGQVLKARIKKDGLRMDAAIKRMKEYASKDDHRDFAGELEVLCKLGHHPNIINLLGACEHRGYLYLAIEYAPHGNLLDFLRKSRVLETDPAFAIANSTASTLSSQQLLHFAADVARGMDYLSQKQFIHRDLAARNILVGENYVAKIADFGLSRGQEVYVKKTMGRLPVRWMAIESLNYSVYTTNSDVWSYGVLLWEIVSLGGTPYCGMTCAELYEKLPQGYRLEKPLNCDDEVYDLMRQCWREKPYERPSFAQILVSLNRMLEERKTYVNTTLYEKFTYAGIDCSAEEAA
# T2 sequence (P28223 whole entry): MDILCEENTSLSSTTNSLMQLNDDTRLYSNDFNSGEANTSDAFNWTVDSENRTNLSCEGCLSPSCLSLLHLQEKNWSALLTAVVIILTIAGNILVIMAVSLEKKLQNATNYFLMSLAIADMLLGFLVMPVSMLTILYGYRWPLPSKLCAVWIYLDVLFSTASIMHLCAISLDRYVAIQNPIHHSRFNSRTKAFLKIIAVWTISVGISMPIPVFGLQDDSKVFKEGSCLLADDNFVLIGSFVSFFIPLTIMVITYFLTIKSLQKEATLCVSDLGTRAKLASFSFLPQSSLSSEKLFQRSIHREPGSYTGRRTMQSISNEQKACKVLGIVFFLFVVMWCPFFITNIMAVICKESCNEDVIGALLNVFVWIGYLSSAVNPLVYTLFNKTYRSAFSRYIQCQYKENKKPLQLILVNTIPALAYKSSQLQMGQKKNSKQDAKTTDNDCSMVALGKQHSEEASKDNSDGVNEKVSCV
# T10 sequence (P29597 897-1176 limits assumed): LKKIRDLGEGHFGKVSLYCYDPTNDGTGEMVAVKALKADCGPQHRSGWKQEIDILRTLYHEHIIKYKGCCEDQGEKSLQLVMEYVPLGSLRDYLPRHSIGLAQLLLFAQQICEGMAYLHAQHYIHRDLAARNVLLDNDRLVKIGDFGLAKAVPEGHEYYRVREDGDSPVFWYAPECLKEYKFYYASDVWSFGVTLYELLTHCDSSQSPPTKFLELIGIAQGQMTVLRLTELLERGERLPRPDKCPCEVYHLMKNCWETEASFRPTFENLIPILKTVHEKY
# T9 sequence (O00444 whole entry): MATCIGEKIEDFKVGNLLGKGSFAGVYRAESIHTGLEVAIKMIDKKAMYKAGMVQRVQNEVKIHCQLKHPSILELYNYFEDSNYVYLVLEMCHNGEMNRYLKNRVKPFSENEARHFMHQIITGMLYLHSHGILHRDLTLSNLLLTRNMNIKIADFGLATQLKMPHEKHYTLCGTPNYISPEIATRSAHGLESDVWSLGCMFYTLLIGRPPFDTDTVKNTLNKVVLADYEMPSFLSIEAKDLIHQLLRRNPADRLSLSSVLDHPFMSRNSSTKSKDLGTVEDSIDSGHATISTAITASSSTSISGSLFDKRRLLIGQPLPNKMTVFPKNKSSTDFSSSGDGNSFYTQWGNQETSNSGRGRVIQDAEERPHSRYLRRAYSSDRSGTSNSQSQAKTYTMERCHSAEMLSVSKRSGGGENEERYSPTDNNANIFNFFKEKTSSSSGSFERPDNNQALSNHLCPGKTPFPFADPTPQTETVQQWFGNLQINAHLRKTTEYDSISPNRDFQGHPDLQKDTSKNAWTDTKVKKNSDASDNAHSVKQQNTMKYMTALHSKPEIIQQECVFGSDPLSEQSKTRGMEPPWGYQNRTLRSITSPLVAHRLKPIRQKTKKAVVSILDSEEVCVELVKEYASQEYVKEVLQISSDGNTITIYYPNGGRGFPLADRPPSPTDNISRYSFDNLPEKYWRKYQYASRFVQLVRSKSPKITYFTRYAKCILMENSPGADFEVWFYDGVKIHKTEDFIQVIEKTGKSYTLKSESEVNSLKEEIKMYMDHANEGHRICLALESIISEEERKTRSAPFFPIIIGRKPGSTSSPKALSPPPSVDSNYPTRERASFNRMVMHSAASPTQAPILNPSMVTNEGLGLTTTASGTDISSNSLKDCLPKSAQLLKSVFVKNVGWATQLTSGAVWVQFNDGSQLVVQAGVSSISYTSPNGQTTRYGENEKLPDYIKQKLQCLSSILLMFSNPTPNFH
# T11 sequence (P36507 whole entry): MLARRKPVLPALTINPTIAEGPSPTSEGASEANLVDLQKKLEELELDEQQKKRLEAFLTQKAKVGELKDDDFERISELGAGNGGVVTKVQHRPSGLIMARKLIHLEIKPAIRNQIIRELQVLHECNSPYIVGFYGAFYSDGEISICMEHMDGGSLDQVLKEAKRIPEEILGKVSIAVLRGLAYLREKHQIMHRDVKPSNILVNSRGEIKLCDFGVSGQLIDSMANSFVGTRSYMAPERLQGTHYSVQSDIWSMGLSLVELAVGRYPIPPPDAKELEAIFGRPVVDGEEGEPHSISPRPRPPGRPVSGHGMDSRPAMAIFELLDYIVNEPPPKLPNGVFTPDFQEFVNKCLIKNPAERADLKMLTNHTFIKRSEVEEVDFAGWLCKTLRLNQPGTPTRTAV
# T8 sequence (Q05397 whole entry): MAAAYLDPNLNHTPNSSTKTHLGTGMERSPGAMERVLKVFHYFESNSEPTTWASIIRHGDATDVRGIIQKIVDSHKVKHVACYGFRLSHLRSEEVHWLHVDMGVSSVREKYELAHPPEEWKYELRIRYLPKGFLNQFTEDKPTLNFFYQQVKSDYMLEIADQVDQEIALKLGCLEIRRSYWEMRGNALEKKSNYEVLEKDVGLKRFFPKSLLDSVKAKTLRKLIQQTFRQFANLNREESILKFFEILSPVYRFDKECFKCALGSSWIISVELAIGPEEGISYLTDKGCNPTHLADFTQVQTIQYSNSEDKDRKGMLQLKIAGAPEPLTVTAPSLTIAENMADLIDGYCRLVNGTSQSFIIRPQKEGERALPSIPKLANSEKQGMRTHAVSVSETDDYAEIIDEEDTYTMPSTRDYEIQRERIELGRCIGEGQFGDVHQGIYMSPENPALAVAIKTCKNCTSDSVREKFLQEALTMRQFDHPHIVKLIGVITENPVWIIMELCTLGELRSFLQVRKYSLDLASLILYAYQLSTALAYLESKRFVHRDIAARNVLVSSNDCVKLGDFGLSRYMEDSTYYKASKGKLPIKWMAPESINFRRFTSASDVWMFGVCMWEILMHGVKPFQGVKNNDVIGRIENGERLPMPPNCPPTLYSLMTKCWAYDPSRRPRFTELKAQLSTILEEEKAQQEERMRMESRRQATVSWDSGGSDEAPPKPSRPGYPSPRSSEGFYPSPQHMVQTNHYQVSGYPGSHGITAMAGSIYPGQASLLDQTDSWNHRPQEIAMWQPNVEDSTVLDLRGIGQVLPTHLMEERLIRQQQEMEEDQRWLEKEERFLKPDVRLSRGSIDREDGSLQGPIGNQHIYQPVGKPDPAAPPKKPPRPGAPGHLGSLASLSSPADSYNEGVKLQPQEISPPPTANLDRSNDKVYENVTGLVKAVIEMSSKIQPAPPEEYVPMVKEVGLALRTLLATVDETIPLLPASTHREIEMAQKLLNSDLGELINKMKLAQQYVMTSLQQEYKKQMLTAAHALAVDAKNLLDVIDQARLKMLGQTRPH
# T7 sequence (Q96GD4 whole entry): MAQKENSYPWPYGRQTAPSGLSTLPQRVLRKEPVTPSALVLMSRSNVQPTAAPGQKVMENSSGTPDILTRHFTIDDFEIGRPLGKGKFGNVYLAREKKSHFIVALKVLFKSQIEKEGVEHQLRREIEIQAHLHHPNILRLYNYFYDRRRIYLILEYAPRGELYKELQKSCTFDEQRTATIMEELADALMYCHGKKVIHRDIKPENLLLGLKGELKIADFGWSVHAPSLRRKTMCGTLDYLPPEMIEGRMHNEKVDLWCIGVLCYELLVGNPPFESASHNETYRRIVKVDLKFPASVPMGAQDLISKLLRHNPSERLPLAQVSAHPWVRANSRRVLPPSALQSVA
Compound,head-twitch response (C57BL/6J mice [1]),inhibition of DYRK1A activity (DYRK1A),total distance traveled in open field chamber (C57BL/6J mice [2]),"activation of 5-HT2A, IP-One agonist mode [3]","antagonist activity at 5-HT2A, IP-One [3]","dampening of head-twitch response produced by 5-MeO-DMT (C57BL/6J mice [1]; 30 mg/kg pretreatment, 10 mg/kg 5-MeO-DMT)",activity at other kinases of the LIPID family (besides PIK3CG) (97 kinases),kinase family selectivity (97 kinases; 97 kinases),Percent Control (PCTK1),Percent Control (IGF1R),Percent Control (MAP3K4),Percent Control (AXL),Percent Control (AURKB),Percent Control (FAK),Percent Control (PLK4),Percent Control [4],Percent Control (MEK2),Percent Control (TIE2)
"COc1ccc2c(c1)N(CCN(C)C)/C(=C/C(C)=O)S2.O=C(O)/C=C/C(=O)O [HTW_B_14 fumarate, (Z)-1-(3-(2-(dimethylamino)ethyl)-5-methoxybenzo[d]thiazol-2(3H)-ylidene)propan-2-one Fumarate Salt (1:1)]",failed to produce a head-twitch response,able to inhibit DYRK1A activity,do not significantly affect the total distance traveled,no activation,antagonist activity,,,,,,,,,,,,,
"COc1ccc2c3ccnc(C)c3n(CCN(C)C)c2c1.O=C(O)/C=C/C(=O)O [HTW_A_8 fumarate, 2-(7-methoxy-1-methyl-9H-pyrido[3,4-b]indol-9-yl)-N,N-dimethylethan-1-amine Fumarate Salt (2:3)]",failed to produce a head-twitch response,able to inhibit DYRK1A activity,do not significantly affect the total distance traveled,no activation,antagonist activity,sufficient to dampen the head-twitch response,did not exhibit activity for any other kinase in the LIPID family,selective for kinases in the CMGC family,,,,,,,,,,
"COc1ccc2c(c1)[nH]c1c(C)nccc12 [Harmine, harmine]",,,,,,,,,100%,100%,93%,82%,80%,100%,77%,96%,96%,94%
